# Reference: patent publication US20220160608A1, “PEPTIDE FOR REDUCING HAIR LOSS AND PROMOTING HAIR GROWTH, AND COSMETIC COMPOSITION AND PHARMACEUTICAL COMPOSITION COMPRISING SAME” (INCOSPHARM CORPORATION, priority 2019, published 2022)
# Assays:
# [1] = tested on: growth hormones VEGF, IGF-I, FGF10; assay: Western blot for expression of hair-related growth hormone proteins in HFDPCs; format: cell-based, human; settings: 10 or 40 μM respectively, 48 hours
# Description: Specifically, human follicular dermal papilla cells (HFDPCs) were uniformly plated with western blot experimental method at the number of 1×10^5 cells in a 6-well plate and cultured in an incubator in DMEM (Dulbecco's Modified Eagle Media, Gibco BRL) for 24 hours at 37° C. under 5% CO2 conditions. […] Thereafter, 1 ml of each dilution solution was added in each well containing 1 ml of medium, and incubated for 48 hours. After the culture was completed, the medium was removed and the cells were disrupted with SDS sample buffer, followed by separating each protein on SDS-PAGE gel electrophoresis, transferring to a polyvinylidene fluoride (PVDF) membrane, and then removing non-specific binding using a blocking buffer.
# [2] = tested on: FGF1 and FGF7; assay: RT-PCR for FGF1 and FGF7 gene expression in human dermal papilla cells; format: cell-based; settings: 10 or 40 μM
# Description: (§1) After completion of the culture, the cells were disrupted with Trizol (Ambion), total mRNA was collected with chloroform/isopropanol, and cDNA was synthesized with reverse transcriptase.
# [3] = tested on: MMP-2 and ALP; assay: RT-PCR for MMP-2 and ALP gene expression in human dermal papilla cells; format: cell-based; settings: compared to the control group
# Description: as §1
# RT-PCR (Thermal Cycler, Bio-rad) was performed using primers specific for MMP-2 and ALP, and the amplified product was analyzed by agarose gel electrophoresis, and the results are shown in (a) of FIG. 6.
# [4] = tested on: Wnt/β-catenin signaling pathway; settings: HFDPCs; for expression of p-GSK3β protein / expression of β-catenin protein: Western blot, compared to control group not treated with the peptide; for expression of active β-catenin protein, concentration screening: all concentrations from 0.1 μM to 100 μM (SEQ ID NO: 5) or 50 μM (SEQ ID NO: 10), effect not concentration-dependent
# Description: Human follicular dermal papilla cells (HFDPCs) were uniformly plated at the number of 1×10^5 or 5×10^4 cells in a 6-well plate and cultured in an incubator in DMEM (Dulbecco's Modified Eagle Media, Gibco BRL) for 24 hours at 37° C. under 5% CO2 conditions. […] After adding 1 ml of each dilution to each well containing 1 ml of the medium the cells were incubated for a certain period of time. After the culture was completed, the medium was removed, the cells were disrupted with SDS sample buffer. Each protein was separated by SDS-PAGE gel electrophoresis and transferred to a polyvinylidene fluoride (PVDF) membrane, and then non-specific binding was eliminated using a blocking buffer.
# [5] = tested on: p21 (cyclin-dependent kinase inhibitor 1a, Cdkn1a); settings: HFDPCs, Western blot, compared to the control group
# Description: Specifically, human follicular dermal papilla cells (HFDPCs) were uniformly plated with western blot experimental method at the number of 1×10^5 cells in a 6-well plate and cultured in an incubator in DMEM (Dulbecco's Modified Eagle Media, Gibco BRL) for 24 hours at 37° C. under 5% CO2 conditions. The peptides of SEQ ID NO: 5 and SEQ ID NO: 10 of the present invention were dissolved in water at a concentration of 10 mM to obtain a concentrate, which was diluted with a medium to an optimal concentration of 10 or 40 μM, respectively. Thereafter, 1 ml of each dilution solution was added in each well containing 1 ml of medium, and incubated for 48 hours. After the culture was completed, the medium was removed and the cells were disrupted with SDS sample buffer, followed by separating each protein on SDS-PAGE gel electrophoresis, transferring to a polyvinylidene fluoride (PVDF) membrane, and then removing non-specific binding using a blocking buffer.
# In order to analyze whether p21 may be inhibited by treatment with peptides of SEQ ID NO: 5 and SEQ ID NO: 10, Western blot for an expression of p21 protein was performed.
# After transferring to a PVDF membrane (polyvinylidene fluoride), non-specific binding was eliminated using a blocking buffer.
# [6] = tested on: human hair follicles; settings: SEQ ID NO: 5 100 μM, SEQ ID NO: 10 16.6 μM; 7 or 10 days culture; compared to IGF-1 (10 ng/ml) or Minoxidil (10 μM) positive control
# Description: After separating the surrounding tissues, the hair follicles isolated from the human scalp tissues were stored in Earle's balanced salts solution (EBSS; SigmaAldrich). The hair follicles in anagen phase were carefully separated under a microscope and then used in the experiment. The isolated hair follicles were cultured in Williams medium E (Gibco, Grand Island, N.Y., USA) at 37° C., 5% CO2 and 95% air with an addition of 2 mM L-glutamine (Gibco, NY, USA), 10 μg/ml insulin (SigmaAldrich), 10 ng/ml hydrocortisone (SigmaAldrich), 100 Unit/ml penicillin and 100 μg/ml streptomycin. […] At this time, as a positive control group, Minoxidil (10 μM) or IGF-1 (10 ng/ml) was treated.
# [7] = tested on: Wnt/β-catenin signaling pathway inhibited by DKK-1; assay: Inhibition of DKK-1 activity: reactivation of Wnt/β-catenin signaling inhibited by recombinant DKK-1 (Western blot, HFDPCs); settings: for recovery (increase) of expression level of non-phospho (active) β-catenin: peptide treated simultaneously with recombinant DKK-1
# Description: Specifically, human follicular dermal papilla cells (HFDPCs) were uniformly plated at the number of 5×10^4 cells in a 12-well plate and cultured in an incubator in DMEM (Dulbecco's Modified Eagle Media, Gibco BRL) for 24 hours at 37° C. under 5% CO2 conditions. After culturing, each well was treated with the recombinant protein DKK-1 to inhibit the Wnt/β-catenin signaling pathway, and further treated with the peptides of SEQ ID NO: 5 and SEQ ID NO: 10 of the present invention at appropriate concentrations, followed by culturing for a certain period of time.
# After the culture was completed, the medium was removed, the cells were disrupted with SDS sample buffer. Each protein was separated by SDS-PAGE gel electrophoresis and transferred to a PVDF membrane (polyvinylidene fluoride), and then non-specific binding was eliminated using a blocking buffer.
# [8] = biological target: LRP5 (human, UniProt O75197 32-1615); assay: cell-based or functional assay
# [9] = biological target: LRP6 (human, UniProt O75581 20-1613); assay: cell-based or functional assay
# Sequence of LRP6 (O75581 20-1613): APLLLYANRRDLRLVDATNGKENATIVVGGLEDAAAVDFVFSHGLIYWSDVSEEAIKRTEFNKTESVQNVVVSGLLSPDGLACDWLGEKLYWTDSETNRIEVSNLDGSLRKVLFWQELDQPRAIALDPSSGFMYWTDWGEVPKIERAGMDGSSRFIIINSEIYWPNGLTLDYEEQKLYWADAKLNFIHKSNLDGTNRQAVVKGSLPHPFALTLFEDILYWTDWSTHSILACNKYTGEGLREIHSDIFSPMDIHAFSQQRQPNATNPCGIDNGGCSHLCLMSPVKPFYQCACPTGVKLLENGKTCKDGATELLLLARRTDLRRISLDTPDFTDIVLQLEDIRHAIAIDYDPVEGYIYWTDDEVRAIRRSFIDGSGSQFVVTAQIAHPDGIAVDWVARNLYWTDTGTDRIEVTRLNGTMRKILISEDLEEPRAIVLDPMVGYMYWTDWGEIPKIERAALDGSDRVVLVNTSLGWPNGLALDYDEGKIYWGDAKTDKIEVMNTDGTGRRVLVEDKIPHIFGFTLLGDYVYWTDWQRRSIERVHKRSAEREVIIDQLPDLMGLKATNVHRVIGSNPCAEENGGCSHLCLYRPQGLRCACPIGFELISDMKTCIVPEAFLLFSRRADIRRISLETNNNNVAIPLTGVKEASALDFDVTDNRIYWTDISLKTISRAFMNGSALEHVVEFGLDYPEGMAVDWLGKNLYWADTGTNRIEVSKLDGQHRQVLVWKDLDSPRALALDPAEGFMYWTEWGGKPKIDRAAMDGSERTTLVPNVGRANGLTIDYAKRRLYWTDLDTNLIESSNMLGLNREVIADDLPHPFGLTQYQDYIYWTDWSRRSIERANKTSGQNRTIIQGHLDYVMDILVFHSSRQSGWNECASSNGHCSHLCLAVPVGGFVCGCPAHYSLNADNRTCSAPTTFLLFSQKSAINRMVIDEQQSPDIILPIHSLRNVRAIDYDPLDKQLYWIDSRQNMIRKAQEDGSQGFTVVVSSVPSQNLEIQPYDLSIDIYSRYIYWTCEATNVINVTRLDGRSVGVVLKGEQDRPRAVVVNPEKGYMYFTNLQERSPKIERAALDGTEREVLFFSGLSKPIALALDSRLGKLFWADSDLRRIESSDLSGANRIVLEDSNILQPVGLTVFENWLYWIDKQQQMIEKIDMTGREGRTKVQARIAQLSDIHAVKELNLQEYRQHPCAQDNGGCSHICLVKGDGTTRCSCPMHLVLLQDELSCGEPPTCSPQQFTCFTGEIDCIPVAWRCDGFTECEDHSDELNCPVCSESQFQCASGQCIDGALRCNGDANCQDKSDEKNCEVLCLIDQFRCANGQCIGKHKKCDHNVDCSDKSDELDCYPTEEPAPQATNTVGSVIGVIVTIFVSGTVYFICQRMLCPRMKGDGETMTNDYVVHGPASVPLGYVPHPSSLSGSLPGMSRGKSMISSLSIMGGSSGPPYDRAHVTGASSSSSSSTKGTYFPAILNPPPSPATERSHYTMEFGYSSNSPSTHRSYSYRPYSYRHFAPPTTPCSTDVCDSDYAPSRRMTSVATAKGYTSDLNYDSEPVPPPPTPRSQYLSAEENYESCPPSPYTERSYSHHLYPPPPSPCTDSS
# Sequence of LRP5 (O75197 32-1615): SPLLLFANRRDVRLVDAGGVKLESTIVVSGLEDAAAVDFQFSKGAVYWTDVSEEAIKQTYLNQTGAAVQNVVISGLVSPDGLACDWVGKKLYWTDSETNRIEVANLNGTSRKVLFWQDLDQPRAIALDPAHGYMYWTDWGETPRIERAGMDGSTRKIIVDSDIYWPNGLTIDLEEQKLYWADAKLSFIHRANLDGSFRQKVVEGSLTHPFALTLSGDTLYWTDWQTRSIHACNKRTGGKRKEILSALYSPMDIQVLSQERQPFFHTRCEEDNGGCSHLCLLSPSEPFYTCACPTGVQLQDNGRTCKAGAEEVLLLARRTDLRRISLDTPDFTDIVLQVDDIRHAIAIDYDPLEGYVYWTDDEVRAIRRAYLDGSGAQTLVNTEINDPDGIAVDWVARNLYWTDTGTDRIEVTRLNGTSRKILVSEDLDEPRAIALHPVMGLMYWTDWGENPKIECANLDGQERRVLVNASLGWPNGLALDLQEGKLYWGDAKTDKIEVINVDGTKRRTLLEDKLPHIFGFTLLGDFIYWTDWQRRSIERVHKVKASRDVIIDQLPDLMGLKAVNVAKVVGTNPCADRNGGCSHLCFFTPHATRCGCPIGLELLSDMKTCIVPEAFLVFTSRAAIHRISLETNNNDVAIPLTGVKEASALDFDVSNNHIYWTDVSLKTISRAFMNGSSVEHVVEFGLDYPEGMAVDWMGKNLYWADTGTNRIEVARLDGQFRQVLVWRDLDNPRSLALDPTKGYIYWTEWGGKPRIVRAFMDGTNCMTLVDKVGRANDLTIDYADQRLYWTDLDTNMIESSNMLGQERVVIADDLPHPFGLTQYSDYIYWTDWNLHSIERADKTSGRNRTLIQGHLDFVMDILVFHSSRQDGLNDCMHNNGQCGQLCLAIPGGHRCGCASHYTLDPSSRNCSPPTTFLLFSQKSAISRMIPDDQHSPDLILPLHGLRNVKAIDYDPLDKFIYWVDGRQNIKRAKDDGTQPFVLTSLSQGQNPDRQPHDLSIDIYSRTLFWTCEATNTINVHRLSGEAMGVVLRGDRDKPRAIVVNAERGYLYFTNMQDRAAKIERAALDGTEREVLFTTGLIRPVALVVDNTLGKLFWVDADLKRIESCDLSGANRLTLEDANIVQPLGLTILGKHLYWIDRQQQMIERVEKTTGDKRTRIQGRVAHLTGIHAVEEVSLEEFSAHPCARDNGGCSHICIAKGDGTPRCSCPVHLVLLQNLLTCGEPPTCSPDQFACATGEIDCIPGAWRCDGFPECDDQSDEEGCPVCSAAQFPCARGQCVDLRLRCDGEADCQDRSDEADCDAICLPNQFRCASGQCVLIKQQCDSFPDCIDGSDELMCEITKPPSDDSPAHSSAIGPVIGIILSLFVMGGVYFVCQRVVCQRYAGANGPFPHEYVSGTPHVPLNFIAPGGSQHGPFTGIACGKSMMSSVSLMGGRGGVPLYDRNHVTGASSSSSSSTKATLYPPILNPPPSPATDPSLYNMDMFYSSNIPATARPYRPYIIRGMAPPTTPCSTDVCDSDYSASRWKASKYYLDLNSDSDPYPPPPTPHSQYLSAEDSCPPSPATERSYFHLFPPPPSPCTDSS
molecule,measurement,setting,value
arginine-isoleucine-proline [SEQ ID NO: 10],expression of FGF10 protein,[1],increased
same,expression of IGF-I protein,[1],increased
same,expression of VEGF protein,[1],increased
same,expression of FGF1 gene,[2],increased
same,expression of FGF7 gene,[2],increased
same,gene expression of ALP,[3],increased
same,gene expression of MMP-2,[3],increased
same,expression of p-GSK3β protein,[4],significantly increased
same,expression of β-catenin protein,[4],significantly increased
same,"expression of active β-catenin protein, concentration screening",[4],increased
same,p21 protein expression,[5],significantly reduced
same,hair shaft growth (length of hair shaft),[6],superior hair shaft growth
same,recovery (increase) of expression level of non-phospho (active) β-catenin,[7],~31%
recombinant protein DKK-1 (Dickkopf-1) (from UniProt O94907 32-266) (ligand),"expression level of non-phospho(active) β-catenin in HFDPCs (western blot), decrease against untreated control",[8],24%
same,"expression level of non-phospho(active) β-catenin in HFDPCs (western blot), decrease against untreated control",[9],24%
serine-cysteine-arginine-isoleucine-glutamine [SEQ ID NO: 5],expression of FGF10 protein,[1],increased
same,expression of IGF-I protein,[1],increased
same,expression of VEGF protein,[1],increased
same,expression of FGF1 gene,[2],increased
same,expression of FGF7 gene,[2],increased
same,gene expression of ALP,[3],increased
same,gene expression of MMP-2,[3],increased
same,expression of p-GSK3β protein,[4],significantly increased
same,expression of β-catenin protein,[4],significantly increased
same,"expression of active β-catenin protein, concentration screening",[4],increased
same,p21 protein expression,[5],significantly reduced
same,hair shaft growth (length of hair shaft),[6],superior hair shaft growth
same,recovery (increase) of expression level of non-phospho (active) β-catenin,[7],about 10%
"DKK-1: recombinant protein, potent antagonist of the Wnt/β-catenin signaling pathway, ligand of LRP5/6 (protein) TLNSVLNSNAIKNLPPPLGGAAGHPGSAVSAAPGILYPGGNKYQTIDNYQPYPCAEDEECGTDEYCASPTRGGDAGVQICLACRKRRKRCMRHAMCCPGNYCKNGICVSSDQNHFRGEIEETITESFGNDHSTLDGYSRRTTLSSKMYHTKGQEGSVCLRSSDCASGLCCARHFWSKICKPVLKEGQVCTKHRRKGSHGLEIFQRCYCGEGLSCRIQKDHHQASNSSRLHTCQRH",decrease of expression level of non-phospho(active) β-catenin,[7]; control group treated with recombinant protein DKK-1,about 24%
"RIP [peptide of SEQ ID NO: 10 (arginine-isoleucine-proline, RIP)]","expression level of non-phospho (active) β-catenin in HFDPCs treated with recombinant DKK-1 (western blot), recovery",[8],~31%
same,"expression level of non-phospho (active) β-catenin in HFDPCs treated with recombinant DKK-1 (western blot), recovery",[9],~31%
"SCRIQ [peptide of SEQ ID NO: 5 (serine-cysteine-arginine-isoleucine-glutamine, SCRIQ)]","expression level of non-phospho (active) β-catenin in HFDPCs treated with recombinant DKK-1 (western blot), recovery",[8],~10%
same,"expression level of non-phospho (active) β-catenin in HFDPCs treated with recombinant DKK-1 (western blot), recovery",[9],~10%
